Consider one compound from paper PMC4210147, “Sequence-Specific Dimerization of a Transmembrane Helix in Amphipol A8-35” (PLoS ONE, 2014).

The target in one assay is T1, human GpA TM domain (Homo sapiens, UniProt P02724).
T1 construct: purchased Peptide Specialty Laboratories, Heidelberg, Germany; host or cells: chemical synthesis (custom peptide)
T1 sequence (P02724 88-120 limits assumed) 1: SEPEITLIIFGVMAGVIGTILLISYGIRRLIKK
T1 sequence (P02724 88-120 limits assumed) 2: T1 sequence (P02724 88-120 limits assumed) 1
Briefly: FRET kinetics of exchange of GpA TM peptides between particles/micelles. In kind it is binding. Particulars: for amplitude of first (fast) phase / amplitude of second (slow) phase / exchange rate constant, first (fast) phase / exchange rate constant, second (slow) phase: double-exponential fit. The procedure:
For Förster resonance energy transfer (FRET) measurements, equal concentrations of FL- and TAMRA-labeled GpA TM domains were used. Concentrations of the peptide stock solutions were determined from absorbance measurements on a Perkin Elmer Lambda 35 UV/VIS spectrophotometer. In all experiments, we used 0.25 µM for each of the two labeled GpA peptides. Peptides dissolved in TFE and A8-35 dissolved in ethanol were mixed, and organic solvents were removed under a gentle stream of nitrogen gas. Residual solvent traces were removed by vacuum desiccation overnight. The dried peptide/polymer film was then hydrated in 10 mM HEPES buffer (pH 7.4) containing 150 mM NaCl.
After at least 2 h of incubation at 37°C and 10 min of centrifugation at 16,000 g, steady-state fluorescence measurements were performed with the supernatant at 25°C on a Horiba Fluoromax 4 system with both excitation and emission slits at 3 nm. The excitation wavelength was set at 439 nm, and emission spectra were recorded from 480 to 650 nm. For FRET measurements with SDS, several concentrations of SDS, both below and above the CMC determined for the given buffer conditions, were used, and hydrated samples were incubated overnight.
Energy transfer E was calculated using the donor fluorescence intensities at 525 nm in presence and absence of acceptor according to [drawing 1] (1)
To investigate the effect of A8-35 on the GpA dimer stability in greater detail, we next performed kinetic measurements and determined the exchange rates of GpA TM helices between various polymer particles after reconstitution. Upon addition of an excess of a competing surfactant, such as free APols, detergents or phospholipids, MPs can be released from preformed complexes with APols, although at very slow dissociation rates, and e.g. integrate into detergent micelles, [37]-[39]. To test this, donor- and acceptor-labeled GpA peptides were individually solubilized in 20 µM A8-35 and incubated at 37°C for at least 2 h. Next, A8-35-solubilized donor and acceptor peptides were mixed in a 1∶1 ratio, and fluorescence emission spectra were recorded every 10 min for about 17 h (Figure 3A). As a control necessary for calculation of energy transfer, this measurement was also performed with solely the donor sample, for which no changes in fluorescence intensity were observed. […] To compare the exchange rates measured in APols with rates determined in micellar environments, the same experiment was performed in 5 mM DDM micelles (Figure 3C).
Figure 3 Kinetics of the exchange of GpA TM peptides between APol aggregates. Donor- and acceptor-labelled GpA TM (each 0.25 µM) domains were separately solubilized in 20 µM APol at a final polymer/peptide ratio of 40∶1. (A) After incubation at 37°C, donor and acceptor were mixed, and emission spectra (normalized at 525 nm) were recorded every 10 min over a time period of 17 h at 25°C. (B) The energy transfer increased over hours to the level determined by steady-state FRET measurements due to mixing of donor- and acceptor-labelled peptides.

For another assay, the system named is GpA TM dimer. Particulars: SDS, DDMAB, DPC, lyso-PC, ref [26]-[28], cited from earlier work.

Regarding `CC[C@H](C)[C@H](NC(=O)CNC(=O)[C@H](Cc1ccc(O)cc1)NC(=O)[C@H](CO)NC(=O)[C@@H](NC(=O)[C@H](CC(C)C)NC(=O)[C@H](CC(C)C)NC(=O)[C@@H](NC(=O)[C@@H](NC(=O)CNC(=O)[C@@H](NC(=O)[C@@H](NC(=O)CNC(=O)[C@H](C)NC(=O)[C@H](CCSC)NC(=O)[C@@H](NC(=O)CNC(=O)[C@H](Cc1ccccc1)NC(=O)[C@@H](NC(=O)[C@@H](NC(=O)[C@H](CC(C)C)NC(=O)[C@@H](NC(=O)[C@@H](NC(=O)[C@H](CCC(=O)O)NC(=O)[C@@H]1CCCN1C(=O)[C@H](CCC(=O)O)NC(=O)[C@@H](N)CO)[C@@H](C)CC)[C@@H](C)O)[C@@H](C)CC)[C@@H](C)CC)C(C)C)C(C)C)[C@@H](C)CC)[C@@H](C)O)[C@@H](C)CC)[C@@H](C)CC)C(=O)N[C@@H](CCCNC(=N)N)C(=O)N[C@@H](CCCNC(=N)N)C(=O)N[C@@H](CC(C)C)C(=O)N[C@H](C(=O)N[C@@H](CCCCN)C(=O)N[C@@H](CCCCN)C(=O)O)[C@@H](C)CC` [GpA TM domain], at human GpA TM domain (5 mM DDM micelles), the “amplitude of first (fast) phase” value stood at 13.3; the “amplitude of second (slow) phase” value is recorded as 15.6; the “exchange rate constant, first (fast) phase” value turned out to be 41.5 h⁻¹; the “exchange rate constant, second (slow) phase” value came to 5.8 h⁻¹. Moreover, at human GpA TM domain (5 mM DDM micelles, listed as GpA TM peptides), the “duration of peptide exchange” value was “completed after some dozen minutes”. The same compound displayed an energy transfer on human GpA TM domain (17 h after 1:1 mixing of donor- and acceptor-labeled peptides (each 0.25 µM) in 20 µM A8-35, 25°C) of approximately 35%. The “dimer fraction after exchange” value at human GpA TM domain (17 h after mixing, from energy transfer, 20 µM A8-35, 25°C) is recorded as approximately 0.7. Further, the “duration of peptide exchange” value on human GpA TM domain (A8-35 (20 µM)) was “proceeded for several hours”. Moreover, on human GpA TM domain (A8-35 (20 µM), 25°C), the “amplitude of first (fast) phase” value is listed as 8.7; the “amplitude of second (slow) phase” value turned out to be 12.4; the “exchange rate constant, first (fast) phase” value turned out to be 2.2 h⁻¹; the “exchange rate constant, second (slow) phase” value amounted to 0.17 h⁻¹. The “dissociation constants of the GpA TM dimer upon further addition of detergent” value in the assay with GpA TM dimer (compared to A8-35) was “increase significantly”. Further, the Kd at GpA TM dimer (read-out: dissociation constants of the GpA TM dimer in detergents, low detergent concentrations) was not above 500 nM.
